# Measurements reported in ChEMBL document CHEMBL1156474, “Phenotypic and structural analyses of hepatitis C virus NS3 protease Arg155 variants: sensitivity to telaprevir (VX-950) and interferon alpha” (J Biol Chem, 2007).
# Changes are numbered by the printed parent chain. Numbers in names are those of the source.
# B1: NS3 protease (Hepacivirus C), C1KIQ2 R155K (protein)
# chain: APITAYAQQTRGLLGCIITSLTGRDKNQAEGEVQIVSTATQTFLATCINGVCWTVYHGAGTRTIASPKGPVIQMYTNVDKDLVGWPAPQGTRSLTPCTCGSSDLYLVTRHADVIPVRRRGDSRGSLLSPRPISYLKGSSGGPLLCPAGHAVGIFKAAVCTRGVAKAVDFIPVENLETTMRS
# B2: NS3 protease (Hepacivirus C), C1KIQ2 R155T (protein)
# chain: B1 chain with K155T
# B3: NS3 protease (Hepacivirus C), C1KIQ2 R155S (protein)
# chain: B1 chain with K155S
# Experiments:
# Hepatitis C virus [1] = experiment: Antiviral activity against HCV 1b with NS3-4A R155M mutation in human Huh7 cells after 48 hrs by replicon cell assay; assay type: functional, organism-based, Hepacivirus hominis; conditions: genotype 1b, Huh-7, 48 h
# Hepatitis C virus [2] = experiment: (§1) Antiviral activity against HCV 1b with NS3-4A R155T mutation in human Huh7 cells after 48 hrs by replicon cell assay; assay type: functional, organism-based, Hepacivirus hominis; conditions: genotype 1b, Huh-7, 48 h
# Hepatitis C virus [3] = experiment: Ratio of IC50 for HCV 1b with NS3-4A R155G mutation to IC50 for wild type HCV 1b; assay type: functional, Hepacivirus hominis, genotype 1b
# Hepatitis C virus [4] = experiment: Ratio of IC50 for HCV 1b with NS3-4A R155T mutation to IC50 for wild type HCV 1b; assay type: functional, Hepacivirus hominis, genotype 1b
# Hepatitis C virus [5] = experiment: Ratio of IC50 for HCV 1b with NS3-4 R155K mutation to IC50 for wild type HCV 1b; assay type: functional, Hepacivirus hominis, genotype 1b
# Hepatitis C virus [6] = experiment: Antiviral activity against HCV 1b Con1 with NS3-4A R155K mutation in human Huh7 cells after 48 hrs by replicon cell assay; assay type: functional, organism-based, Hepacivirus hominis; conditions: genotype 1b Con 1, Huh-7, 48 h
# Hepatitis C virus [7] = experiment: Antiviral activity against wild type HCV 1b Con1 in human Huh7 cells after 48 hrs by replicon cell assay; assay type: functional, organism-based, Hepacivirus hominis; conditions: genotype 1b Con 1, Huh-7, 48 h
# Hepatitis C virus [8] = experiment: Ratio of IC50 for HCV 1b with NS3-4A R155M mutation to IC50 for wild type HCV 1b; assay type: functional, Hepacivirus hominis, genotype 1b
# Hepatitis C virus [9] = experiment: Antiviral activity against HCV with NS3-4A R155G mutation in human Huh7.5 cells assessed as replication capacity by luciferase assay relative to wild type HCV; assay type: functional, Hepacivirus hominis, Huh-7
# Hepatitis C virus [10] = experiment: Antiviral activity against HCV 1b with NS3-4A R155G mutation in human Huh7 cells after 48 hrs by replicon cell assay; assay type: functional, organism-based, Hepacivirus hominis; conditions: genotype 1b, Huh-7, 48 h
# Hepatitis C virus [11] = experiment: as §1; assay type: functional, organism-based, Hepacivirus hominis; conditions: genotype 1b, Huh-7, 48 h; remark: listed apart in the source
# Hepatitis C virus [12] = experiment: Antiviral activity against wild type HCV in human Huh7.5 cells assessed as replication capacity by luciferase assay; assay type: functional, Hepacivirus hominis, Huh-7
# [13] = test system: Hepatitis C virus subtype 1a
# Description: Activity of wild type HCV 1a NS3-4A protease
# NS3 protease [14] = biological target: NS3 protease (Hepacivirus C, UniProt C1KIQ2, R155T); experiment: Inhibition of HCV 1a NS3-4A R155T mutant protease after 60 mins; parameters: species or system Hepatitis C virus subtype 1a
# Sequence of NS3 protease (Hepacivirus C, UniProt C1KIQ2, R155T) (C1KIQ2 entry or part of it R155T): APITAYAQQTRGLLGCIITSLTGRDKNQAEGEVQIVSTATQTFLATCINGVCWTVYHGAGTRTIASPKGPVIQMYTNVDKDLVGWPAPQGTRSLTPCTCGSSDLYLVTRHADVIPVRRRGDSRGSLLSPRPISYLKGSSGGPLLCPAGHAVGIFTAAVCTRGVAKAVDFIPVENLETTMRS
# Hepatitis C virus [15] = experiment: Ratio of IC50 for HCV 1b with NS3-4A R155S mutation to IC50 for wild type HCV 1b; assay type: functional, Hepacivirus hominis, genotype 1b
# Hepatitis C virus [16] = experiment: Antiviral activity against HCV 1b with NS3-4A R155I mutation in human Huh7 cells after 48 hrs by replicon cell assay; assay type: functional, organism-based, Hepacivirus hominis; conditions: genotype 1b, Huh-7, 48 h
# Hepatitis C virus [17] = experiment: Antiviral activity against HCV with NS3-4A R155T mutation in human Huh7.5 cells assessed as replication capacity by luciferase assay relative to wild type HCV; assay type: functional, Hepacivirus hominis, Huh-7
# Hepatitis C virus [18] = experiment: Antiviral activity against HCV with NS3-4A R155I mutation in human Huh7.5 cells assessed as replication capacity by luciferase assay relative to wild type HCV; assay type: functional, Hepacivirus hominis, Huh-7
# NS3 protease [19] = biological target: NS3 protease (Hepacivirus C, UniProt C1KIQ2, R155I); experiment: Inhibition of HCV 1a NS3-4A R155I mutant protease after 60 mins; parameters: species or system Hepatitis C virus subtype 1a
# Sequence of NS3 protease (Hepacivirus C, UniProt C1KIQ2, R155I) (C1KIQ2 entry or part of it R155I): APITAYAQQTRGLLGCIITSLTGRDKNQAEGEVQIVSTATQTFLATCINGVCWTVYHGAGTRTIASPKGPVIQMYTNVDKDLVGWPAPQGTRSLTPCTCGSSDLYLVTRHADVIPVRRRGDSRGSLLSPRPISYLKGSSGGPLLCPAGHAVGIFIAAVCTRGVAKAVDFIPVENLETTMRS
# NS3 protease [20] = biological target: NS3 protease (Hepacivirus C, UniProt C1KIQ2, R155K); experiment: Inhibition of HCV 1a NS3-4A R155K mutant protease after 60 mins; parameters: species or system Hepatitis C virus subtype 1a
# Hepatitis C virus [21] = experiment: Antiviral activity against HCV with NS3-4A R155S mutation in human Huh7.5 cells assessed as replication capacity by luciferase assay relative to wild type HCV; assay type: functional, Hepacivirus hominis, Huh-7
# Hepatitis C virus [22] = experiment: Ratio of IC50 for HCV 1b with NS3-4A R155I mutation to IC50 for wild type HCV 1b; assay type: functional, Hepacivirus hominis, genotype 1b
# NS3 protease [23] = biological target: NS3 protease (Hepacivirus C, UniProt C1KIQ2, R155S); experiment: Inhibition of HCV 1a NS3-4A protease R155S mutant after 60 mins; parameters: species or system Hepatitis C virus subtype 1a
# Sequence of NS3 protease (Hepacivirus C, UniProt C1KIQ2, R155S) (C1KIQ2 entry or part of it R155S): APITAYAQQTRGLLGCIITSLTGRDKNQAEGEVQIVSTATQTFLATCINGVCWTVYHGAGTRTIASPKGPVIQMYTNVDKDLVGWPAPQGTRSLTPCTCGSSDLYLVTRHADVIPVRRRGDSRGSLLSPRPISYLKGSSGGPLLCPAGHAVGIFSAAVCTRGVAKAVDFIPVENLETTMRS
# Hepatitis C virus [24] = experiment: Antiviral activity against HCV with NS3-4A R155K mutation in human Huh7.5 cells after assessed as replication capacity by luciferase assay relative to wild type HCV; assay type: functional, Hepacivirus hominis, Huh-7
# Hepatitis C virus [25] = experiment: Antiviral activity against HCV with NS3-4A R155M mutation in human Huh7.5 cells assessed as replication capacity by luciferase assay relative to wild type HCV; assay type: functional, Hepacivirus hominis, Huh-7
# [26] = Inhibition of wild type HCV 1a NS3-4A protease after 60 mins
# [27] = substrate: CCC[C@H](NC(=O)[C@@H]1[C@H]2CCC[C@H]2CN1C(=O)[C@@H](NC(=O)[C@@H](NC(=O)c1cnccn1)C1CCCCC1)C(C)(C)C)C(=O)C(=O)NC1CC1; conditions: Hepatitis C virus subtype 1a
# [28] = substrate: CCC[C@H](NC(=O)[C@@H]1[C@H]2CCC[C@H]2CN1C(=O)[C@@H](NC(=O)[C@@H](NC(=O)c1cnccn1)C1CCCCC1)C(C)(C)C)C(=O)C(=O)NC1CC1; conditions: Hepatitis C virus subtype 1a; remark: listed apart in the source
# [29] = substrate: CCC[C@H](NC(=O)[C@@H]1[C@H]2CCC[C@H]2CN1C(=O)[C@@H](NC(=O)[C@@H](NC(=O)c1cnccn1)C1CCCCC1)C(C)(C)C)C(=O)C(=O)NC1CC1; conditions: Hepatitis C virus subtype 1a; remark: listed apart in the source
molecule,measurement,setting,value
NC(=O)c1ncn([C@@H]2O[C@H](CO)[C@@H](O)[C@H]2O)n1 [RIBAVIRIN],IC50,Hepatitis C virus [1],39 µM
same,IC50,Hepatitis C virus [2],32 µM
same,fold change (FC),Hepatitis C virus [3],0.7
same,fold change (FC),Hepatitis C virus [4],0.6
same,fold change (FC),Hepatitis C virus [5],0.6
same,IC50,Hepatitis C virus [6],37 µM
same,IC50,Hepatitis C virus [7],58 µM
CCC[C@H](NC(=O)[C@@H]1[C@H]2CCC[C@H]2CN1C(=O)[C@@H](NC(=O)[C@@H](NC(=O)c1cnccn1)C1CCCCC1)C(C)(C)C)C(=O)C(=O)NC1CC1 [TELAPREVIR],fold change (FC),Hepatitis C virus [8],5.5
same,IC50,Hepatitis C virus [1],2.7 µM
same,Activity,Hepatitis C virus [9],10%
same,IC50,Hepatitis C virus [10],3.6 µM
same,IC50,Hepatitis C virus [11],2 µM
same,Activity,Hepatitis C virus [12],100%
same,Km,[13],53 µM
same,IC50,NS3 protease [14],0.49 µM
same,IC50,Hepatitis C virus [2],9.6 µM
same,fold change (FC),Hepatitis C virus [15],4.1
same,IC50,Hepatitis C virus [16],11.7 µM
same,Activity,Hepatitis C virus [17],41%
same,Activity,Hepatitis C virus [18],19%
same,IC50,NS3 protease [19],0.88 µM
same,IC50,NS3 protease [20],0.51 µM
same,Activity,Hepatitis C virus [21],45%
same,fold change (FC),Hepatitis C virus [22],24
same,IC50,NS3 protease [23],1.15 µM
same,fold change (FC),Hepatitis C virus [3],7.4
same,fold change (FC),Hepatitis C virus [4],19.8
same,fold change (FC),Hepatitis C virus [5],7.4
same,Activity,Hepatitis C virus [24],80%
same,Activity,Hepatitis C virus [25],18%
same,IC50,Hepatitis C virus [6],3.6 µM
same,IC50,Hepatitis C virus [7],0.49 µM
same,IC50,[26],0.05 µM
B1,Km,[27],168 µM
B2,Km,[28],68 µM
B3,Km,[29],552 µM
